Results taken from PubChem BioAssay AID2060891 (Molecular Pharmacology Branch, DTP, NCI, 2025).

Tested on: K98450-129-R-PDC complex spheroid growth, percent test/control
Experiment: Anticancer human tumor K98450-129-R-PDC patient-derived colon adenocarcinoma cell line growth inhibition [RAS]
Details: for viability, T/C: stronger effect = lower value
Summary of the method: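 Tumour cells grown as complex spheroids with HUVEC endothelial cells and mesenchymal stem cells, treated with RAS pathway inhibitor combinations. Each agent spans half-log steps from near clinical Cmax, or 10 microM where Cmax is unknown.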
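Note: spheroids exposed to agents for seven days before the viability readout.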
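Throughout, for viability, T/C: luminescence used as a proxy for viable cell amount.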

Nc1ccn(C2OC(CO)C(O)C2(F)F)c(=O)n1 (stereo unspecified) + C=CC(=O)N1CCN(c2nc(OCC3CCCN3C)nc3c(F)c(-c4nc(N)cc(C)c4C(F)(F)F)c(Cl)cc23)C(C)C1
IC50 (curve of first compound, second compound 0.00316 µM): 57.9 nM
IC50 (curve of first compound, second compound 0.01 µM): 33.7 nM
IC50 (curve of first compound, second compound 0.0316 µM): 15.3 nM
IC50 (curve of first compound, second compound 0.1 µM): 5.71 nM
IC50 (curve of first compound, second compound 0.316 µM): < 3.16 nM
IC50 (curve of first compound, second compound 1 µM): < 3.16 nM
viability, T/C (second compound 0.00316 µM, first compound 0.00316 µM): 91.3%
viability, T/C (second compound 0.00316 µM, first compound 0.01 µM): 86.3%
viability, T/C (second compound 0.00316 µM, first compound 0.0316 µM): 59.6%
viability, T/C (second compound 0.00316 µM, first compound 0.1 µM): 40.5%
viability, T/C (second compound 0.00316 µM, first compound 0.316 µM): 31.7%
viability, T/C (second compound 0.00316 µM, first compound 1 µM): 25.8%
viability, T/C (second compound 0.01 µM, first compound 0.00316 µM): 91%
viability, T/C (second compound 0.01 µM, first compound 0.01 µM): 76.8%
viability, T/C (second compound 0.01 µM, first compound 0.0316 µM): 49.1%
viability, T/C (second compound 0.01 µM, first compound 0.1 µM): 34.8%
viability, T/C (second compound 0.01 µM, first compound 0.316 µM): 28.5%
viability, T/C (second compound 0.01 µM, first compound 1 µM): 22.8%
viability, T/C (second compound 0.0316 µM, first compound 0.00316 µM): 68.4%
viability, T/C (second compound 0.0316 µM, first compound 0.01 µM): 59.5%
viability, T/C (second compound 0.0316 µM, first compound 0.0316 µM): 34.1%
viability, T/C (second compound 0.0316 µM, first compound 0.1 µM): 22.6%
viability, T/C (second compound 0.0316 µM, first compound 0.316 µM): 18.5%
viability, T/C (second compound 0.0316 µM, first compound 1 µM): 16.3%
viability, T/C (second compound 0.1 µM, first compound 0.00316 µM): 57.5%
viability, T/C (second compound 0.1 µM, first compound 0.01 µM): 43%
viability, T/C (second compound 0.1 µM, first compound 0.0316 µM): 24.4%
viability, T/C (second compound 0.1 µM, first compound 0.1 µM): 17.7%
viability, T/C (second compound 0.1 µM, first compound 0.316 µM): 15.2%
viability, T/C (second compound 0.1 µM, first compound 1 µM): 14.7%
viability, T/C (second compound 0.316 µM, first compound 0.00316 µM): 41.5%
viability, T/C (second compound 0.316 µM, first compound 0.01 µM): 38.6%
viability, T/C (second compound 0.316 µM, first compound 0.0316 µM): 21.8%
viability, T/C (second compound 0.316 µM, first compound 0.1 µM): 16.4%
viability, T/C (second compound 0.316 µM, first compound 0.316 µM): 14.2%
viability, T/C (second compound 0.316 µM, first compound 1 µM): 12.8%
viability, T/C (second compound 1 µM, first compound 0.00316 µM): 36.2%
viability, T/C (second compound 1 µM, first compound 0.01 µM): 25.1%
viability, T/C (second compound 1 µM, first compound 0.0316 µM): 18.8%
viability, T/C (second compound 1 µM, first compound 0.1 µM): 16.9%
viability, T/C (second compound 1 µM, first compound 0.316 µM): 14.3%
viability, T/C (second compound 1 µM, first compound 1 µM): 14.4%

CCc1c2c(nc3ccc(O)cc13)-c1cc3c(c(=O)n1C2)COC(=O)[C@]3(O)CC + CCn1c(-c2cc(N3CCN(C)CC3)cnc2C(C)OC)c2c3cc(ccc31)-c1csc(n1)CC(NC(=O)C1CC1C)C(=O)N1CCCC(N1)C(=O)OCC(C)(C)C2
IC50 (curve of first compound, second compound 0.000949 µM): 83.6 nM
IC50 (curve of first compound, second compound 0.003 µM): 57.1 nM
IC50 (curve of first compound, second compound 0.00949 µM): 18.5 nM
IC50 (curve of first compound, second compound 0.03 µM): 3.92 nM
IC50 (curve of first compound, second compound 0.0949 µM): < 0.949 nM
IC50 (curve of first compound, second compound 0.3 µM): < 0.949 nM
viability, T/C (second compound 0.000949 µM, first compound 0.000949 µM): 105%
viability, T/C (second compound 0.000949 µM, first compound 0.003 µM): 89.6%
viability, T/C (second compound 0.000949 µM, first compound 0.00949 µM): 81.6%
viability, T/C (second compound 0.000949 µM, first compound 0.03 µM): 52.6%
viability, T/C (second compound 0.000949 µM, first compound 0.0949 µM): 53.1%
viability, T/C (second compound 0.000949 µM, first compound 0.3 µM): 44.3%
viability, T/C (second compound 0.003 µM, first compound 0.000949 µM): 91.6%
viability, T/C (second compound 0.003 µM, first compound 0.003 µM): 75.3%
viability, T/C (second compound 0.003 µM, first compound 0.00949 µM): 76%
viability, T/C (second compound 0.003 µM, first compound 0.03 µM): 54.7%
viability, T/C (second compound 0.003 µM, first compound 0.0949 µM): 43.8%
viability, T/C (second compound 0.003 µM, first compound 0.3 µM): 36.4%
viability, T/C (second compound 0.00949 µM, first compound 0.000949 µM): 69.5%
viability, T/C (second compound 0.00949 µM, first compound 0.003 µM): 56.6%
viability, T/C (second compound 0.00949 µM, first compound 0.00949 µM): 66.7%
viability, T/C (second compound 0.00949 µM, first compound 0.03 µM): 39.6%
viability, T/C (second compound 0.00949 µM, first compound 0.0949 µM): 29.3%
viability, T/C (second compound 0.00949 µM, first compound 0.3 µM): 22.5%
viability, T/C (second compound 0.03 µM, first compound 0.000949 µM): 53.4%
viability, T/C (second compound 0.03 µM, first compound 0.003 µM): 52.8%
viability, T/C (second compound 0.03 µM, first compound 0.00949 µM): 43.3%
viability, T/C (second compound 0.03 µM, first compound 0.03 µM): 24.7%
viability, T/C (second compound 0.03 µM, first compound 0.0949 µM): 22.8%
viability, T/C (second compound 0.03 µM, first compound 0.3 µM): 13.9%
viability, T/C (second compound 0.0949 µM, first compound 0.000949 µM): 19.6%
viability, T/C (second compound 0.0949 µM, first compound 0.003 µM): 24.4%
viability, T/C (second compound 0.0949 µM, first compound 0.00949 µM): 17.5%
viability, T/C (second compound 0.0949 µM, first compound 0.03 µM): 12.3%
viability, T/C (second compound 0.0949 µM, first compound 0.0949 µM): 13.2%
viability, T/C (second compound 0.0949 µM, first compound 0.3 µM): 9.33%
viability, T/C (second compound 0.3 µM, first compound 0.000949 µM): 12.4%
viability, T/C (second compound 0.3 µM, first compound 0.003 µM): 15.5%
viability, T/C (second compound 0.3 µM, first compound 0.00949 µM): 11.4%
viability, T/C (second compound 0.3 µM, first compound 0.03 µM): 10.8%
viability, T/C (second compound 0.3 µM, first compound 0.0949 µM): 10.3%
viability, T/C (second compound 0.3 µM, first compound 0.3 µM): 6.55%

C#Cc1c(F)ccc2cc(O)cc(-c3ncc4c(N5CC6CCC(C5)N6)nc(OCC56CCCN5CC(F)C6)nc4c3F)c12 (stereo unspecified)
viability, T/C (compound 0.0316 µM): 106% [middle of 8 runs]
viability, T/C (compound 0.1 µM): 105% [middle of 7 runs]
viability, T/C (compound 0.316 µM): 105% [middle of 8 runs]
viability, T/C (compound 1 µM): 102% [middle of 8 runs]
viability, T/C (compound 3.16 µM): 102% [middle of 8 runs]
viability, T/C (compound 10 µM): 95.1% [middle of 8 runs]
IC50 (compound alone, run of 06/10/2024): > 10000 nM
